Results: US20240208992A1, “MACROCYCLES AS CFTR MODULATORS” (Idorsia Pharmaceuticals Ltd, priority 2021, published 2024)

Target: human F508del-CFTR (Homo sapiens, UniProt P13569, DEL508-508)
Assay: F508del-CFTR cell surface expression (corrector activity), DiscoveRx ß-galactosidase complementation chemiluminescence assay in recombinant U2OS cell line;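 note: U2OS cells co-expressing ProLink-tagged F508del-CFTR and a membrane-anchored enzyme acceptor, where more surface CFTR restores β-galactosidase activity measured by chemiluminescence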
Details: for EC50: EC50, F508del-CFTR cell surface expression, U2OS cells, 16h compound incubation, geomean values; for Emax: U2OS, in relation to Emax of corrector lumacaftor (=100%), arithmetic mean values

human F508del-CFTR, sequence (P13569 with tags, fused parts or gaps DEL508-508): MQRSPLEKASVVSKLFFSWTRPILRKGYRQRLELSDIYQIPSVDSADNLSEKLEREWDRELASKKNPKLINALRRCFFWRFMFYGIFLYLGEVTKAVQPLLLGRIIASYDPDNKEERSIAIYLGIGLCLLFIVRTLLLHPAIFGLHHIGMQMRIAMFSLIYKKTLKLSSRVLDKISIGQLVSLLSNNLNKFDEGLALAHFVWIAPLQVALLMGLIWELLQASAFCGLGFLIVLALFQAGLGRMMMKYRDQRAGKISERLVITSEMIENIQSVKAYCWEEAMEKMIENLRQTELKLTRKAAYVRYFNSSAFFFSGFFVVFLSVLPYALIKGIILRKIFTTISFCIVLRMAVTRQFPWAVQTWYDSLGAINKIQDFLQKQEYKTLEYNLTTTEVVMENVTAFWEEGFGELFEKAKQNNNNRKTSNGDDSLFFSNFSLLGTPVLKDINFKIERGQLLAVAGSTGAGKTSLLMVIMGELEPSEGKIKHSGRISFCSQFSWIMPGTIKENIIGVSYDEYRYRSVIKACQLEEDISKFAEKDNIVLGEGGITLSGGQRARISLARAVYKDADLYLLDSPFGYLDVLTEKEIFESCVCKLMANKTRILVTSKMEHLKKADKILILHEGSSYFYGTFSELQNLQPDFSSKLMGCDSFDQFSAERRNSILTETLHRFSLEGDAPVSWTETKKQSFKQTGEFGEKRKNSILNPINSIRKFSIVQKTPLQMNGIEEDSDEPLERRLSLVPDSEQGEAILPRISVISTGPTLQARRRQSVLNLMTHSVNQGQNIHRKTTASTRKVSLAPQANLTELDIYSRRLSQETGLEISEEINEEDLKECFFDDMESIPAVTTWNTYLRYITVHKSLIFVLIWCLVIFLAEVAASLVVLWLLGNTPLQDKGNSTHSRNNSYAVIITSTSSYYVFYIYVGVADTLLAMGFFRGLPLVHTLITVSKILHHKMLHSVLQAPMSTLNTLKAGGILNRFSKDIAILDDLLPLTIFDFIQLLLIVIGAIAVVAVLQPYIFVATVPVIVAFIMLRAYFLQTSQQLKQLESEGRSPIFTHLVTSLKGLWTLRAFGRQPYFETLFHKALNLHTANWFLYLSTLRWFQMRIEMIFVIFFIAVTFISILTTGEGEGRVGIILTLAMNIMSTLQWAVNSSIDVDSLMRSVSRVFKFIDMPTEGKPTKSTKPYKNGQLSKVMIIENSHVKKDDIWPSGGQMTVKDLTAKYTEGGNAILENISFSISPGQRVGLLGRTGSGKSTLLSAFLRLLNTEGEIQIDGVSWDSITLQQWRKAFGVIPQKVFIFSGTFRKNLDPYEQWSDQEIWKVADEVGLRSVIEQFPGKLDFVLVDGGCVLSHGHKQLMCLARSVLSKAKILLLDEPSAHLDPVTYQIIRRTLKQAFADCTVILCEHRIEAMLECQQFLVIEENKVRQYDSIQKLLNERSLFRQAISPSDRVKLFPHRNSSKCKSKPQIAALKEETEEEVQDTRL

Structure (SMILES) | EC50 [nM] | Emax [%]
Cc1cc(CCNC(=O)[C@@H]2CC(=O)N(C)[C@@H](CC(C)C)C(=O)N(C)C3(CC(F)(F)C3)C(=O)N[C@H](Cc3ccccc3)COc3cnc4ccccc4c3C(=O)N2)on1 [Example 711, (3′S,7′S,13′R)-13′-benzyl-3,3-difluoro-7′-isobutyl-6′,9′-dimethyl-N-(2-(3-methylisoxazol-5-yl)ethyl)-1′,5′,8′,11′-tetraoxo-2′,3′,4′,5′,6′,7′,8′,9′,11′,12′,13′,14′-dodecahydro-1′H-spiro[cyclobutane-1,10′-[1]oxa[4,7,10,14]tetraazacycloheptadecino[17,16-c]quinoline]-3′-carboxamide] | 778 | 301
COc1cccc(CCNC(=O)[C@@H]2CC(=O)N(C)[C@@H](CC(C)C)C(=O)N(C)[C@@H](COCc3ccccc3)C(=O)N[C@H](Cc3ccccc3)COc3ccc4ccccc4c3C(=O)N2)c1 [Example 715, (3S,7S,10S,13R)-13-benzyl-10-((benzyloxy)methyl)-7-isobutyl-N-(3-methoxyphenethyl)-6,9-dimethyl-1,5,8,11-tetraoxo-1,2,3,4,5,6,7,8,9,10,11,12,13,14-tetradecahydronaphtho[1,2-p][1]oxa[4,7,10,14]tetraazacycloheptadecine-3-carboxamide] | 64 | 283
Cc1cc(CCNC(=O)[C@@H]2CC(=O)N(C)[C@@H](CC(C)C)C(=O)N(C)[C@@H](COCc3ccccc3)C(=O)N[C@H](Cc3ccccc3)COc3ccc4ccccc4c3C(=O)N2)on1 [Example 716, (3S,7S,10S,13R)-13-benzyl-10-((benzyloxy)methyl)-7-isobutyl-6,9-dimethyl-N-(2-(3-methylisoxazol-5-yl)ethyl)-1,5,8,11-tetraoxo-1,2,3,4,5,6,7,8,9,10,11,12,13,14-tetradecahydronaphtho[1,2-p][1]oxa[4,7,10,14]tetraazacycloheptadecine-3-carboxamide] | 144 | 313

The remaining compounds from weak to strong by EC50, led by results:

EC50 [nM] | Emax [%] | Structure (SMILES)
142 | 328 | Cc1cc(CCNC(=O)[C@@H]2CC(=O)N(C)[C@@H](CC(C)C)C(=O)N(C)[C@H](C3CCCC3)C(=O)N[C@H](Cc3ccccc3)COc3cnc4ccc(F)cc4c3C(=O)N2)on1 [Example 721, (3S,7S,10R,13R)-13-benzyl-10-cyclopentyl-20-fluoro-7-isobutyl-6,9-dimethyl-N-(2-(3-methylisoxazol-5-yl)ethyl)-1,5,8,11-tetraoxo-1,2,3,4,5,6,7,8,9,10,11,12,13,14-tetradecahydro-[1]oxa[4,7,10,14]tetraazacycloheptadecino[17,16-c]quinoline-3-carboxamide]
101 | 347 | Cc1cc(CCNC(=O)[C@@H]2CC(=O)N(C)[C@@H](CC(C)C)C(=O)N(C)[C@H](Cc3ccccc3)C(=O)N[C@H](Cc3ccccc3)COc3cnc4ccc(F)cc4c3C(=O)N2)on1 [Example 722, (3S,7S,10R,13R)-10,13-Dibenzyl-20-fluoro-7-isobutyl-6,9-dimethyl-N-(2-(3-methylisoxazol-5-yl)ethyl)-1,5,8,11-tetraoxo-1,2,3,4,5,6,7,8,9,10,11,12,13,14-tetradecahydro-[1]oxa[4,7,10,14]tetraazacycloheptadecino[17,16-c]quinoline-3-carboxamide]
36 | 410 | Cc1cc(CCNC(=O)[C@@H]2CC(=O)N(C)[C@@H](CC(C)C)C(=O)N(C)[C@H](COCc3ccccc3)C(=O)N[C@H](Cc3ccccc3)COc3ccc4ccccc4c3C(=O)N2)on1 [Example 714, (3S,7S,10R,13R)-13-benzyl-10-((benzyloxy)methyl)-7-isobutyl-6,9-dimethyl-N-(2-(3-methylisoxazol-5-yl)ethyl)-1,5,8,11-tetraoxo-1,2,3,4,5,6,7,8,9,10,11,12,13,14-tetradecahydronaphtho[1,2-p][1]oxa[4,7,10,14]tetraazacycloheptadecine-3-carboxamide]
